# Reference: ChEMBL document CHEMBL3045943, “Novel N-aryl(alkaryl)-2-[(3-R-2-oxo-2H-[1,2,4]triazino[2,3-c]quinazoline-6-yl)thio]acetamides: synthesis, cytotoxicity, anticancer activity, COMPARE analysis and docking” (2013)
# Key:
# Assay type in all cases: functional
# LOX IMVI = experiment: Cytotoxicity against Homo sapiens (human) LOXIMVI cells after 48 hr by SRB assay
# A498 = experiment: Cytotoxicity against Homo sapiens (human) A498 cells assessed as cell growth at 10 uM after 48 hr by SRB assay relative to control; settings: A498, 48 h, read-out: Activity
# ACHN = experiment: Cytotoxicity against Homo sapiens (human) ACHN cells after 48 hr by SRB assay
# A549 = experiment: Cytotoxicity against Homo sapiens (human) A549 cells after 48 hr by SRB assay; settings: A549, 48 h
# SK-MEL-5 [1] = experiment: Cytotoxicity against Homo sapiens (human) SK-MEL-5 cells after 48 hr by SRB assay; settings: SK-MEL-5, 48 h
# HOP-92 [2] = experiment: Cytotoxicity against Homo sapiens (human) HOP92 cells assessed as cell growth at 10 uM after 48 hr by SRB assay relative to control; settings: HOP-92, 48 h, read-out: Activity
# 786-0 = experiment: Cytotoxicity against Homo sapiens (human) 786-0 cells after 48 hr by SRB assay; settings: 786-0, 48 h
# CAKI-1 = experiment: Cytotoxicity against Homo sapiens (human) Caki1 cells after 48 hr by SRB assay; settings: CAKI-1, 48 h
# UO-31 = experiment: Cytotoxicity against Homo sapiens (human) UO31 cells assessed as cell growth at 10 uM after 48 hr by SRB assay relative to control; settings: UO-31, 48 h, read-out: Activity
# SF-539 = experiment: Cytotoxicity against Homo sapiens (human) SF539 cells after 48 hr by SRB assay; settings: SF-539, 48 h
# PC-3 = experiment: Cytotoxicity against Homo sapiens (human) PC3 cells assessed as cell growth at 10 uM after 48 hr by SRB assay relative to control; settings: PC-3, 48 h, read-out: Activity
# IGROV-1 = experiment: Cytotoxicity against Homo sapiens (human) IGROV1 cells after 48 hr by SRB assay; settings: IGROV-1, 48 h
# BT-549 = experiment: Cytotoxicity against Homo sapiens (human) BT549 cells after 48 hr by SRB assay; settings: BT-549, 48 h
# SNB-75 = experiment: Cytotoxicity against Homo sapiens (human) SNB75 cells assessed as cell growth at 10 uM after 48 hr by SRB assay relative to control; settings: SNB-75, 48 h, read-out: Activity
# UACC-62 [3] = experiment: Cytotoxicity against Homo sapiens (human) UACC62 cells after 48 hr by SRB assay; settings: UACC-62, 48 h
# U-251 [4] = experiment: Cytotoxicity against Homo sapiens (human) U251 cells assessed as cell growth at 10 uM after 48 hr by SRB assay relative to control; settings: U-251, 48 h, read-out: Activity
# OVCAR-8 = experiment: Cytotoxicity against Homo sapiens (human) OVCAR8 cells assessed as cell growth at 10 uM after 48 hr by SRB assay relative to control; settings: OVCAR-8, 48 h, read-out: Activity
# HCT-15 = experiment: Cytotoxicity against Homo sapiens (human) HCT15 cells assessed as cell growth at 10 uM after 48 hr by SRB assay relative to control; settings: HCT-15, 48 h, read-out: Activity
# SK-MEL-5 [5] = experiment: Cytotoxicity against Homo sapiens (human) SK-MEL-5 cells assessed as cell growth at 10 uM after 48 hr by SRB assay relative to control; settings: SK-MEL-5, 48 h, read-out: Activity
# U-251 [6] = experiment: Cytotoxicity against Homo sapiens (human) U251 cells after 48 hr by SRB assay; settings: U-251, 48 h
# SF-268 = experiment: Cytotoxicity against Homo sapiens (human) SF268 cells after 48 hr by SRB assay; settings: SF-268, 48 h
# HT-29 = experiment: Cytotoxicity against Homo sapiens (human) HT-29 cells assessed as cell growth at 10 uM after 48 hr by SRB assay relative to control; settings: HT-29, 48 h, read-out: Activity
# UACC-62 [7] = experiment: Cytotoxicity against Homo sapiens (human) UACC62 cells assessed as cell growth at 10 uM after 48 hr by SRB assay relative to control; settings: UACC-62, 48 h, read-out: Activity
# Malme-3M [8] = experiment: Cytotoxicity against Homo sapiens (human) MALME-3M cells after 48 hr by SRB assay
# MCF7 [9] = experiment: Cytotoxicity against Homo sapiens (human) MCF7 cells after 48 hr by SRB assay; settings: MCF7, 48 h
# UACC-257 = experiment: Cytotoxicity against Homo sapiens (human) UACC257 cells assessed as cell growth at 10 uM after 48 hr by SRB assay relative to control; settings: UACC-257, 48 h, read-out: Activity
# RXF 393 = experiment: Cytotoxicity against Homo sapiens (human) RXF393 cells assessed as cell growth at 10 uM after 48 hr by SRB assay relative to control; settings: RXF 393, 48 h, read-out: Activity
# HOP-92 [10] = experiment: Cytotoxicity against Homo sapiens (human) HOP92 cells after 48 hr by SRB assay; settings: HOP-92, 48 h
# TK-10 = experiment: Cytotoxicity against Homo sapiens (human) TK10 cells after 48 hr by SRB assay; settings: TK-10, 48 h
# DU-145 = experiment: Cytotoxicity against Homo sapiens (human) DU145 cells after 48 hr by SRB assay; settings: DU-145, 48 h
# MCF7 [11] = experiment: Cytotoxicity against Homo sapiens (human) MCF7 cells assessed as cell growth at 10 uM after 48 hr by SRB assay relative to control; settings: MCF7, 48 h, read-out: Activity
# Malme-3M [12] = experiment: Cytotoxicity against Homo sapiens (human) MALME-3M cells assessed as cell growth at 10 uM after 48 hr by SRB assay relative to control; settings: read-out: Activity
# [13] = read-out: pLC50 (the source's name) (converted)
smiles,measurement,setting,value
COc1ccccc1CNC(=O)CSc1nc2ccccc2c2nc(=O)c(-c3ccccc3)nn12,GI50,LOX IMVI,2.09 µM
same,CC50,LOX IMVI; [13],> 100 µM
same,TGI,LOX IMVI; read-out: pTGI,> 100 µM
same,growth at 10 µM,A498,-23.1%
same,GI50,ACHN,1.86 µM
same,CC50,ACHN; [13],> 100 µM
same,TGI,ACHN; read-out: pTGI,> 100 µM
same,GI50,A549,2.34 µM
same,CC50,A549; [13],> 100 µM
same,TGI,A549; read-out: pTGI,> 100 µM
same,GI50,SK-MEL-5 [1],2.69 µM
same,LC50,SK-MEL-5 [1],> 100 µM
same,TGI,SK-MEL-5 [1]; read-out: pTGI,> 100 µM
same,growth at 10 µM,HOP-92 [2],26.2%
same,GI50,786-0,2.24 µM
same,CC50,786-0; [13],> 100 µM
same,TGI,786-0; read-out: pTGI,5.25 µM
same,GI50,CAKI-1,1.91 µM
same,CC50,CAKI-1; [13],> 100 µM
same,TGI,CAKI-1; read-out: pTGI,> 100 µM
same,growth at 10 µM,UO-31,43.8%
same,GI50,SF-539,1.82 µM
same,CC50,SF-539; [13],> 100 µM
same,TGI,SF-539; read-out: pTGI,> 100 µM
same,growth at 10 µM,PC-3,35.6%
same,GI50,IGROV-1,3.02 µM
same,CC50,IGROV-1; [13],> 100 µM
same,TGI,IGROV-1; read-out: pTGI,> 100 µM
same,GI50,BT-549,2.14 µM
same,LC50,BT-549,74.1 µM
same,TGI,BT-549; read-out: pTGI (converted),3.98 µM
COc1ccc(-c2nn3c(SCC(=O)Nc4ccccc4Cl)nc4ccccc4c3nc2=O)cc1,growth at 10 µM,SNB-75,55.6%
same,GI50,UACC-62 [3],2.75 µM
same,CC50,UACC-62 [3]; [13],> 100 µM
same,TGI,UACC-62 [3]; read-out: pTGI (converted),67.6 µM
same,growth at 10 µM,U-251 [4],-22.6%
same,growth at 10 µM,OVCAR-8,31.5%
same,growth at 10 µM,HCT-15,71.9%
same,growth at 10 µM,SK-MEL-5 [5],41.4%
same,GI50,U-251 [6],1.78 µM
same,LC50,U-251 [6],18.6 µM
same,TGI,U-251 [6]; read-out: pTGI (converted),4.68 µM
same,GI50,SF-268,2.95 µM
same,CC50,SF-268; [13],72.4 µM
same,TGI,SF-268; read-out: pTGI (converted),13.8 µM
same,growth at 10 µM,HT-29,5.16%
same,growth at 10 µM,UACC-62 [7],18.1%
same,GI50,Malme-3M [8],1.86 µM
same,CC50,Malme-3M [8]; [13],> 100 µM
same,TGI,Malme-3M [8]; read-out: pTGI (converted),7.94 µM
same,GI50,MCF7 [9],2.34 µM
same,CC50,MCF7 [9]; [13],> 100 µM
same,TGI,MCF7 [9]; read-out: pTGI,> 100 µM
same,growth at 10 µM,UACC-257,-17.1%
same,growth at 10 µM,RXF 393,37.4%
same,GI50,HOP-92 [10],1.82 µM
same,CC50,HOP-92 [10]; [13],42.7 µM
same,TGI,HOP-92 [10]; read-out: pTGI (converted),9.12 µM
same,GI50,TK-10,2.19 µM
same,CC50,TK-10; [13],33.9 µM
same,TGI,TK-10; read-out: pTGI (converted),7.24 µM
same,GI50,DU-145,1.38 µM
same,CC50,DU-145; [13],> 100 µM
same,TGI,DU-145; read-out: pTGI,> 100 µM
same,growth at 10 µM,MCF7 [11],32.8%
same,growth at 10 µM,Malme-3M [12],18.8%
